The values below come from patent US20080293785A1, “SUBSTITUTED BENZOTHIAZOLE KINASE INHIBITORS” (priority 2006, published 2008).

Format in all cases: biochemical
In assay [1] the target is T1, CDK1:Cyclin-B (Homo sapiens, UniProt P06493).
T1 construct: purchased New England Biolabs, Beverly, Mass; 6020; host or cells: insect cells
Nature of the assay: CDK1 Screening Assay. The note with it: 10 μM ATP, biotinylated histone-H1 peptide substrate, 33P-γ-ATP FlashPlate; read-out: Kinase IC50 CDK1. The method, then: (§1) A kinase reaction mixture was prepared containing 50 mM Tris.HCl pH=8, 10 mM MgCl2, 0.1 mM Na3PO4, 1 mM DTT, 10 μM ATP, 0.025 μM biotinylated histone-H1 peptide substrate and 0.2 μCuries per well ^33P-γ-ATP (2000-3000 Ci/mmol). 70 μL of the kinase reaction mixture was dispensed into the well of a streptavidin coated FlashPlate™ (Cat. # SMP103, NEN, Boston, Mass.). Then 1 μL of test compound stock in 100% DMSO was added to the wells resulting in a final concentration of 1% DMSO in the reaction well with a 100 μL final reaction well volume.
(§2) The CDK1:Cyclin-B protein was diluted in 50 mM Tris.HCl pH=8.0, 0.1% BSA at a concentration of 1 ng per μL and 30 μL (30 ng enzyme per test well) was added to each well to initiate the reaction. The reaction was incubated for one hour at 30° C. At the end of the one hour incubation, the reaction was terminated by aspirating the mixture from the plate and washing the wells twice with PBS containing 100 mM EDTA. The histone-H1 biotinylated peptide substrate became immobilized on the Flashplate™ and the incorporation of ^33P-γ-ATP was measured by reading the plate on a scintillation counter. Inhibition of the enzymatic activity of CDK1 was measured by observing a reduced amount of ^33P-γ-ATP incorporated into the immobilized peptide.
The CDK1 kinase used was isolated from insect cells expressing both the human CDK1 catalytic subunit and its positive regulatory subunit cyclin B (New England Biolabs, Beverly, Mass., Cat. # 6020).
(§3) An IC50 listed as >0.1, >1, >10 or >100 means no observed 50% inhibition at the indicated test concentration. […] ND means the compound was not tested in the assay specified.

Assay [2] has as its target T2, CDK2:Cyclin A (Homo sapiens, UniProt P24941).
T2 construct: purchased Upstate Biotech, Lake Placid, N.Y
Kind of assay: CDK2 Screening Assay. The note with it: 10 μM ATP, biotinylated histone-H1 peptide substrate, 33P-γ-ATP FlashPlate; read-out: Kinase IC50 CDK2. The method, then: as §1
as §2, with “CDK2:Cyclin A” for “CDK1:Cyclin-B”, “CDK2” for “CDK1”
The CDK2 kinase used was complexed with cyclin A and is commercially available (Upstate Biotech, Lake Placid, N.Y.).
as §3

Assay [3] addresses VEGF-R2 kinase domain (Rattus norvegicus, UniProt O08775). Nature of the assay: VEGF-R2 Screening Assay. The note with it: 10 μM ATP, biotinylated PLC1 peptide substrate, 33P-γ-ATP FlashPlate; read-out: Kinase IC50 VEGFR. The method, then: A kinase reaction mixture was prepared containing 50 mM Tris.HCl pH=8, 10 mM MgCl2, 0.1 mM Na3PO4, 1 mM DTT, 10 μM ATP, 0.025 μM biotinylated peptide substrate and 0.8 μCuries per well ^33P-γ-ATP (2000-3000 Ci/mmol). 70 μL of the kinase reaction mixture was dispensed into the well of a streptavidin coated FlashPlate™ (Cat. # SMP103, NEN, Boston, Mass.). Then 1 μL of test compound stock in 100% DMSO was added to the wells resulting in a final concentration of 1% DMSO in the reaction well with a 100 μL final reaction well volume.
The soluble rat tyrosine kinase containing an N-terminal 6×HIS tag was diluted in 50 mM Tris.HCl pH=8.0, 0.1% BSA at a concentration of 5 ng per μL and 30 μL (150 ng enzyme per test well) was added to each well to initiate the reaction. The reaction was incubated for one hour at 30° C. At the end of the one hour incubation, the reaction was terminated by aspirating the reaction mixture from the plate and washing the wells twice with PBS containing 100 mM EDTA. The PLC1 biotinylated peptide substrate became immobilized on the Flashplate™ and the incorporation of ^33P-γ-ATP was measured by reading the plate on a scintillation counter. Inhibition of the enzymatic activity of the VEGF-R was measured by observing a reduced amount of ^33P-γ-ATP incorporated into the immobilized peptide.
The VEGF-R kinase assay was carried out using the CDK kinase assay procedure except that the enzyme was replaced with the VEGF-R2 fusion protein containing a polyhistidine tag at the N-terminus followed by amino acids 786-1343 of the rat VEGF-R2 kinase domain (GenBank Accession #U93306).
as §3

A value given as a limit tells only on which side of the number the result lay.

T1 sequence (P06493 whole entry): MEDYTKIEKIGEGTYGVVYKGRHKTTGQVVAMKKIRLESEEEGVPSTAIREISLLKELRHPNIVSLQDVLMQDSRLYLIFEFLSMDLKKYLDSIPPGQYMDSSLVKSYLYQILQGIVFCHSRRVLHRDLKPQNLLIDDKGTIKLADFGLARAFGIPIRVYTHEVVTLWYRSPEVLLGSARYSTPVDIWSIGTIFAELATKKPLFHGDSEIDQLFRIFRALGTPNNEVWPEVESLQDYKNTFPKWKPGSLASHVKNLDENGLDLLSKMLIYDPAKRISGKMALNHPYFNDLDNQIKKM
T1 sequence (P14635 whole entry partner): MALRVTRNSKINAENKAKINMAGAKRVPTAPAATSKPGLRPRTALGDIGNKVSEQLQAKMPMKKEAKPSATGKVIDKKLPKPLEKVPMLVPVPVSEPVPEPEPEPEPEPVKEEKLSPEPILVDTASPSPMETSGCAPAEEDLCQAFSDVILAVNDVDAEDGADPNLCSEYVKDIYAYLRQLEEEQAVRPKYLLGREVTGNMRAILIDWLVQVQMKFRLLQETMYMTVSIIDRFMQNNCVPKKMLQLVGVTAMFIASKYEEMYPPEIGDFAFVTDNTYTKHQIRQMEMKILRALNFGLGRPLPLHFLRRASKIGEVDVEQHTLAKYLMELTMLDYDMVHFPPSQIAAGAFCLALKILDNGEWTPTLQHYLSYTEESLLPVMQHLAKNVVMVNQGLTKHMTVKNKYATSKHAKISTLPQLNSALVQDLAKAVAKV
Chain of VEGF-R2 kinase domain (O08775 786-1343): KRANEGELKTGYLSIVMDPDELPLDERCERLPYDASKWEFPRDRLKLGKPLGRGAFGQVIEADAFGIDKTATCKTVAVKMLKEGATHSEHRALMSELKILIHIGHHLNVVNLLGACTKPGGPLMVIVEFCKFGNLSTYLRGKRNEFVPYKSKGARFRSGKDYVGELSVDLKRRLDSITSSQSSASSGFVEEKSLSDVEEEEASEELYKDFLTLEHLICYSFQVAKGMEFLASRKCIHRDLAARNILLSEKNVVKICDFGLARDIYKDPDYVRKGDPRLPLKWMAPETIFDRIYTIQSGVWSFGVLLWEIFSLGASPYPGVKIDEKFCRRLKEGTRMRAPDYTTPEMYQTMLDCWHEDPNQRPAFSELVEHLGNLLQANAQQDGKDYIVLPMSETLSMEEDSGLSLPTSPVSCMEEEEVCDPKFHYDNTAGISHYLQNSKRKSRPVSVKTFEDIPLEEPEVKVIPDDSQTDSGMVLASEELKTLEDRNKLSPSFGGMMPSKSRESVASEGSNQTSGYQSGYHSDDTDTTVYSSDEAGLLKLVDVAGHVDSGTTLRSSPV

One may read the IC50 as the concentration at which inhibition is half-maximal. For the molecule `O=S(=O)(Nc1cccc2sc(Nc3ccccc3)nc12)c1ccccc1` [Cpd 30, N-(2-phenylamino-benzothiazol-4-yl)-benzenesulfonamide], the IC50 was 11.3 µM in assay [1], 1.94 µM in assay [2] and above 100 µM in assay [3].
For `O=C(Nc1cccc2sc(Nc3ccccc3)nc12)c1cc(C(F)(F)F)cc(C(F)(F)F)c1` [Cpd 31, N-(2-phenylamino-benzothiazol-4-yl)-3,5-bis-trifluoromethyl-benzamide], the IC50 is 55.3 µM in assay [1], 3.03 µM in assay [2] and above 100 µM in assay [3].
For `O=C(Nc1cccc2sc(Nc3ccccc3)nc12)c1ccccc1Br` [Cpd 32, 2-bromo-N-(2-phenylamino-benzothiazol-4-yl)-benzamide], in that order: above 100 µM, 6.27 µM and above 100 µM.
For `O=C(Nc1cccc2sc(Nc3ccccc3)nc12)c1cccc(Br)c1` [Cpd 33, 3-bromo-N-(2-phenylamino-benzothiazol-4-yl)-benzamide], in that order: above 100 µM, above 100 µM and above 100 µM.
The matching figures for `O=C(Nc1cccc2sc(Nc3ccccc3)nc12)c1ccc(-c2ccccc2)cc1` [Cpd 34, biphenyl-4-carboxylic acid (2-phenylamino-benzothiazol-4-yl)-amide]: above 100 µM, 13.6 µM and above 100 µM.
`O=C(Nc1cccc2sc(Nc3ccccc3)nc12)c1cccs1` [Cpd 35, thiophene-2-carboxylic acid (2-phenylamino-benzothiazol-4-yl)-amide]: the IC50 in assay [1], in assay [2] and in assay [3] was above 100 µM throughout.
As to `O=C(Nc1cccc2sc(Nc3ccccc3)nc12)c1cccnc1` [Cpd 36, N-(2-phenylamino-benzothiazol-4-yl)-nicotinamide], the IC50 in assay [1] was 42.7 µM; in assay [2] it was 4.02 µM; in assay [3], at least 100 µM.
For `O=C(Nc1cccc2sc(Nc3ccccc3)nc12)c1ccco1` [Cpd 37, furan-2-carboxylic acid (2-phenylamino-benzothiazol-4-yl)-amide], the IC50 in assay [1] was above 100 µM; in assay [2] it was 8.02 µM; in assay [3], above 100 µM.
As for `N#Cc1cccc(C(=O)Nc2cccc3sc(Nc4ccccc4)nc23)c1` [Cpd 38, 3-cyano-N-(2-phenylamino-benzothiazol-4-yl)-benzamide], the IC50 in assay [1] is above 100 µM; in assay [2] it was 11 µM; in assay [3], above 100 µM.
Take `Cc1cc(C)cc(C(=O)Nc2cccc3sc(Nc4ccccc4)nc23)c1` [Cpd 39, 3,5-dimethyl-N-(2-phenylamino-benzothiazol-4-yl)-benzamide]: the IC50 in assay [1] was 7.15 µM; in assay [2], 1.03 µM; in assay [3] it was above 100 µM.
For `O=C(Nc1cccc2sc(Nc3ccccc3)nc12)c1ccc2ccccc2c1` [Cpd 40, naphthalene-2-carboxylic acid (2-phenylamino-benzothiazol-4-yl)-amide], in that order: above 100 µM, above 100 µM and above 100 µM.
The matching figures for `O=C(Nc1cccc2sc(Nc3ccccc3)nc12)C1CCCCC1` [Cpd 41, cyclohexanecarboxylic acid (2-phenylamino-benzothiazol-4-yl)-amide]: above 100 µM, 2.05 µM and at least 100 µM.
For `CCc1ccc(C(=O)Nc2cccc3sc(Nc4ccccc4)nc23)s1` [Cpd 42, 5-ethyl-thiophene-2-carboxylic acid (2-phenylamino-benzothiazol-4-yl)-amide], in that order: above 100 µM, above 100 µM and above 100 µM.
For `O=C(Nc1cccc2sc(Nc3ccccc3)nc12)c1cc([N+](=O)[O-])cc([N+](=O)[O-])c1` [Cpd 43, 3,5-dinitro-N-(2-phenylamino-benzothiazol-4-yl)-benzamide], the IC50 in assay [1], in assay [2] and in assay [3] was above 100 µM in each case.
Consider `O=C(Nc1cccc2sc(Nc3ccccc3)nc12)c1c(Cl)cc(Cl)cc1Cl` [Cpd 44, 2,4,6-trichloro-N-(2-phenylamino-benzothiazol-4-yl)-benzamide], for which the values for the IC50 in assay [1], in assay [2] and in assay [3] were 1.67 µM, 0.31 µM and above 100 µM, respectively.
In the case of `O=C(Nc1cccc2sc(Nc3ccccc3)nc12)c1c(F)cc(F)cc1F` [Cpd 45, 2,4,6-trifluoro-N-(2-phenylamino-benzothiazol-4-yl)-benzamide], the IC50 in assay [1] was above 10 µM; in assay [2], 1.66 µM; in assay [3], above 100 µM.
The matching figures for `COc1cccc(OC)c1C(=O)Nc1cccc2sc(Nc3ccccc3)nc12` [Cpd 46, 2,6-dimethoxy-N-(2-phenylamino-benzothiazol-4-yl)-benzamide]: above 100 µM, 16.1 µM and above 100 µM.
The matching figures for `O=C(Nc1cccc2sc(Nc3ccccc3)nc12)c1c(Cl)cccc1Cl` [Cpd 47, 2,6-dichloro-N-(2-phenylamino-benzothiazol-4-yl)-benzamide]: 4.3 µM, 0.611 µM and above 100 µM.
The matching figures for `Cc1ccc(F)c(C(=O)Nc2cccc3sc(Nc4ccc(N5CCN(C)CC5)cc4)nc23)c1F` [Cpd 49, 2,6-difluoro-3-methyl-N-{2-[4-(4-methyl-piperazin-1-yl)-phenylamino]-benzothiazol-4-yl}-benzamide]: 2.71 µM, 0.679 µM and at least 100 µM.
Regarding `O=C(Nc1cccc2sc(Nc3ccccc3)nc12)c1cc2ccccc2s1` [Cpd 50, benzo[b]thiophene-2-carboxylic acid (2-phenylamino-benzothiazol-4-yl)-amide], the IC50 in assay [1], in assay [2] and in assay [3] was above 100 µM each time.
In the case of `O=C(Cc1ccccc1)Nc1cccc2sc(Nc3ccccc3)nc12` [Cpd 51, 2-phenyl-N-(2-phenylamino-benzothiazol-4-yl)-acetamide], the figures for the IC50 in assay [1], in assay [2] and in assay [3] were above 100 µM, 1.19 µM and above 100 µM, respectively.
With `O=C(Nc1cccc2sc(Nc3ccccc3)nc12)C1CCCC1` [Cpd 52, cyclopentanecarboxylic acid (2-phenylamino-benzothiazol-4-yl)-amide], the IC50 was above 100 µM in assay [1], 1.37 µM in assay [2] and above 100 µM in assay [3].
For `O=C(Nc1cccc2sc(Nc3ccccc3)nc12)Oc1ccccc1` [Cpd 53, (2-phenylamino-benzothiazol-4-yl)-carbamic acid phenyl ester], the IC50 in assay [1], in assay [2] and in assay [3] was above 100 µM throughout.
